Assay results from paper PMC8751641, “Synthesis and Antiviral Activities of Neoechinulin B and Its Derivatives” (Journal of Natural Products, 2021).

Experiments:
HCV JFH-1 [1] = test: Anti-HCV assay (infectivity of HCV in the medium, focus-forming assay); format: cell-based; details: Hepatitis C virus, Huh-7.5.1; Huh7.5.1 cells, HCV JFH-1 MOI 0.15, 72 h; mean ± SD, triplicate
Description: (§1) The anti-HCV assay was performed as described previously.[3] In brief, Huh7.5.1 cells were treated with HCV JFH-1 at a multiplicity of infection (MOI) of 0.15 for 4 h. […] The infectivity of HCV in the medium was quantified by a focus-forming assay with Huh7.5.1 cells. Cell viability at 72 h post-treatment was simultaneously measured by the MTT assay.[16] Cell growth inhibition was evaluated as the ratio of the absorbance of the sample to that of the control.

[2] = tested on: influenza A virus subtype H1N1; set-up: method as in PMID 25681711; details: by targeting viral hemagglutinin; cited from earlier work
[3] = Cell viability of VeroE6/TMPRSS2 cells (DAPI staining, cell count); format: cell-based; details: chlorocebus sabaeus, 24 h, DAPI staining, surviving cell number, read-out: Cytotoxicity CC50
Description: (§2) The number of cells was quantified based on the measurement of the DNA content.[20] Cell growth inhibition was evaluated as the ratio of the absorbance of the sample to that of the control. […] The cells were washed with PBS and fixed in 4% paraformaldehyde. The resultant cells were stained with 0.02% 4′,6-diamidino-2-phenylindole (DAPI) and washed with PBS four times. The number of surviving cells was quantified with a high-content imaging analyzer, ImageXpress Micro Confocal (Molecular Device, San Jose, CA, USA).

recombinant LXRα = tested on: recombinant LXRα; set-up: method as in PMID 27489280; details: cited from earlier work
SARS-CoV-2 Wk-521 strain = test: Anti-SARS-CoV-2 assay (extracellular viral RNA, VeroE6/TMPRSS2 cells); details: for IC50: read-out: Anti-SARS-CoV-2 activity IC50, MOI 0.003, 24 h, extracellular viral RNA, mean ± SD, triplicate; for IC90: read-out: Anti-SARS-CoV-2 activity IC90, MOI 0.003, 24 h, extracellular viral RNA, mean ± SD, triplicate
[4] = MTT assay, cytotoxicity against host Huh7.5.1 cells; format: cell-based; details: human
Description: as §1

poliovirus = details: cited from earlier work
recombinant LXRβ = tested on: recombinant LXRβ; set-up: method as in PMID 27489280; details: cited from earlier work
HCV JFH-1 [5] = tested on: HCV JFH-1; set-up: method as in PMID 27489280; details: cited from earlier work
VeroE6/TMPRSS2 cells = test: Cell viability of VeroE6/TMPRSS2 cells (DAPI staining, cell count); format: cell-based
Description: as §2

LXR = test: LXRE-driven luciferase reporter assay in Huh-7 cells; details: 48 h

Row | SMILES | IC50 (HCV JFH-1 [1]) | IC90 (HCV JFH-1 [1]) | Entry of influenza A virus subtype H1N1 [2] | CC50 at 24 h [3] | Interaction with LXRα (SPR) (recombinant LXRα) | IC50 (SARS-CoV-2 Wk-521 strain) | IC90 (SARS-CoV-2 Wk-521 strain) | CC50 at 72 h [4] | Poliovirus RNA replication in DMVs (poliovirus) | Interaction with LXRβ (SPR) (recombinant LXRβ) | Antiviral effects against HCV (earlier report) (HCV JFH-1 [5]) | melting point | Anti-SARS-CoV-2 activity (in words) (SARS-CoV-2 Wk-521 strain) | Toxicity toward the host cells (in words) (VeroE6/TMPRSS2 cells) | LXRE-driven luciferase activity (agonist) (LXR)
1 | C=CC(C)(C)c1[nH]c2ccccc2c1/C=c1\[nH]c(=O)c(=C)[nH]c1=O [1a, neoechinulin B] | 4.7 ± 1.4 µM | > 20 µM | inhibit the entry of influenza A virus subtype H1N1 | > 70 µM | interacts with recombinant LXRα and LXRβ | 32.9 ± 13.2 µM | 45.6 ± 7.4 µM | > 20 µM | reduced the RNA replication of poliovirus | interacts with recombinant LXRα and LXRβ | exhibited antiviral effects against hepatitis C virus (HCV) | – | – | – | –
2 | C=c1[nH]c(=O)/c(=C/c2c[nH]c3ccccc23)[nH]c1=O [1b, (Z)-3-[(1H-Indol-3-yl)methylene]-6-methylenepiperazine-2,5-dione] | 2.2 ± 0.64 µM | > 20 µM | – | > 100 µM | – | > 40 µM | > 40 µM | > 20 µM | – | – | – | 285 to 286 °C | did not show anti-SARS-CoV-2 activity | – | –
3 | C=c1[nH]c(=O)/c(=C/c2ccccc2)[nH]c1=O [1c] | 0.0059 ± 0.0042 µM | > 20 µM | – | 40.1 ± 10.5 µM | – | 13.6 ± 3.2 µM | 20.3 ± 3.2 µM | > 20 µM | – | – | – | 242 to 243 °C | exhibited anti-SARS-CoV-2 activity | – | –
4 | C=c1[nH]c(=O)/c(=C/c2ccoc2)[nH]c1=O [1d] | 1.4 ± 0.34 µM | > 20 µM | – | > 80 µM | – | 9.3 ± 6.2 µM | 21.2 ± 9 µM | > 20 µM | – | – | – | 242 to 243 °C | exhibited anti-SARS-CoV-2 activity | – | –
5 | C=c1[nH]c(=O)/c(=C/c2ccsc2)[nH]c1=O [1e] | 1.4 ± 0.48 µM | > 20 µM | – | 42.2 ± 7.9 µM | – | – | – | > 20 µM | – | – | – | 242 to 243 °C | – | showed toxicity toward the host cells | –
6 | C=c1[nH]c(=O)/c(=C/c2cc(C(C)(C)C)cc(C(C)(C)C)c2)[nH]c1=O [1f] | 0.015 ± 0.019 µM | > 20 µM | – | > 100 µM | – | – | > 40 µM | > 20 µM | – | – | – | 204 to 205 °C | did not show anti-SARS-CoV-2 activity | – | –
7 | C=c1[nH]c(=O)/c(=C/c2ccc(C(C)(C)C)cc2)[nH]c1=O [1g] | 1.1 ± 0.34 µM | > 20 µM | – | > 70 µM | – | – | > 40 µM | > 20 µM | – | – | – | 212 to 213 °C | did not show anti-SARS-CoV-2 activity | – | –
8 | C=c1[nH]c(=O)/c(=C/c2ccc(C)cc2)[nH]c1=O [1h] | 2.7 ± 1.4 µM | > 20 µM | – | 63.1 ± 17.9 µM | – | 6 ± 2.4 µM | 16.3 ± 6.2 µM | > 20 µM | – | – | – | 237 to 239 °C | exhibited anti-SARS-CoV-2 activity | – | –
9 | C=c1[nH]c(=O)/c(=C/c2ccc(OC)cc2)[nH]c1=O [1i] | 1.3 ± 0.42 µM | > 20 µM | – | 47.2 ± 0.6 µM | – | – | – | > 20 µM | – | – | – | 229 to 231 °C | – | showed toxicity toward the host cells | –
10 | C=c1[nH]c(=O)/c(=C/c2ccc(OC)c(OC)c2)[nH]c1=O [1j] | 2 ± 0.068 µM | > 20 µM | – | 62.8 ± 17.4 µM | – | 10.3 ± 3.7 µM | 20.1 ± 8.5 µM | > 20 µM | – | – | – | 237 to 238 °C | exhibited anti-SARS-CoV-2 activity | – | –
11 | C=c1[nH]c(=O)/c(=C/c2cc(OC)c(OC)c(OC)c2)[nH]c1=O [1k] | 1.1 ± 0.6 µM | > 20 µM | – | 78.8 ± 4.5 µM | – | – | > 40 µM | > 20 µM | – | – | – | 219 to 221 °C | did not show anti-SARS-CoV-2 activity | – | –
12 | C=c1[nH]c(=O)/c(=C/c2ccc(C(=O)OC)cc2)[nH]c1=O [1l] | 1.2 ± 0.16 µM | 6.5 ± 1.84 µM | – | > 50 µM | – | 8.4 ± 2.1 µM | 14.1 ± 1.8 µM | > 20 µM | – | – | – | 248 to 249 °C | exhibited anti-SARS-CoV-2 activity | – | –
13 | C=c1[nH]c(=O)/c(=C/c2ccc(N(C)C)cc2)[nH]c1=O [1m] | 1.2 ± 0.54 µM | > 20 µM | – | 28.3 ± 6.2 µM | – | – | – | > 20 µM | – | – | – | 225 to 227 °C | – | showed toxicity toward the host cells | –
14 | C=c1[nH]c(=O)/c(=C/c2ccc(C(F)(F)F)cc2)[nH]c1=O [1n] | 1.6 ± 0.32 µM | 9.7 ± 1.06 µM | – | 30.1 ± 7.3 µM | – | – | – | > 20 µM | – | – | – | 244 to 245 °C | – | showed toxicity toward the host cells | –
15 | C=c1[nH]c(=O)/c(=C/c2ccc(-c3ccccc3)cc2)[nH]c1=O [1o] | 4.9 ± 0.66 µM | > 20 µM | – | > 100 µM | – | 20.8 ± 8 µM | > 40 µM | > 20 µM | – | – | – | 229 to 230 °C | exhibited anti-SARS-CoV-2 activity | – | –
16 | C=c1[nH]c(=O)/c(=C/c2ccc3ccccc3c2)[nH]c1=O [1p] | 0.26 ± 0.11 µM | 1.9 ± 0.65 µM | – | 40.7 ± 20.1 µM | – | > 40 µM | > 40 µM | > 20 µM | – | – | – | 216 to 217 °C | did not show anti-SARS-CoV-2 activity | – | –
17 | O=S(=O)(c1ccccc1)N(CC(F)(F)F)c1ccc(C(O)(C(F)(F)F)C(F)(F)F)cc1 [T0901317] | – | – | – | – | – | – | – | – | – | – | – | – | – | – | increased the LXRE-driven luciferase activity
18 | C=CC(C)(C)c1[nH]c2ccccc2c1/C=C1\NC(=O)C(C)(OC)NC1=O (stereo not shown) [compound 6, variecolorin H] | > 20 µM | > 20 µM | – | > 100 µM | – | > 40 µM | > 40 µM | > 20 µM | – | – | – | – | – | – | –
19 | C=CC(C)(C)c1[nH]c2ccccc2c1C[C@@H]1NC(=O)[C@H](C)NC1=O [compound 8, preechinulin] | > 20 µM | > 20 µM | – | > 100 µM | – | > 40 µM | > 40 µM | > 20 µM | – | – | – | – | – | – | –
